{"source": "ChEMBL document CHEMBL1201862", "about": "“PubChem BioAssay data set” (2004)", "key": {"[1]": {"test": "THP-1 cell cytotoxicity, dose response, cytotoxicity control for Vif-APOBEC3G degradation inhibitor project, THP-1 cells (AID 1117359)", "assay_type": "functional", "details": "Human immunodeficiency virus 1, THP-1"}, "HEK293 [2]": {"tested_on": "HEK293", "test": "NOD1 signaling inhibitors, primary screen, cell-based, luminescence, uHTS (AID 1578)", "assay_type": "functional", "details": "Homo sapiens"}, "[3]": {"tested_on": "Streptococcus sp. 'group A'", "test": "growth inhibition of control SK(-) GAS strain, dose response, counter-screen for streptokinase expression inhibitor project, luminescence, kanamycin, BacTiterGlo, confirmation (AID 1900)", "assay_type": "functional, organism-based"}, "HEK293 [4]": {"tested_on": "HEK293", "test": "cells", "assay_type": "functional, cell-based", "details": "Homo sapiens"}, "Streptokinase A": {"target": "T1, Streptokinase A (Streptococcus pyogenes serotype M1, UniProt P10520)", "T1 sequence (P10520 whole entry)": "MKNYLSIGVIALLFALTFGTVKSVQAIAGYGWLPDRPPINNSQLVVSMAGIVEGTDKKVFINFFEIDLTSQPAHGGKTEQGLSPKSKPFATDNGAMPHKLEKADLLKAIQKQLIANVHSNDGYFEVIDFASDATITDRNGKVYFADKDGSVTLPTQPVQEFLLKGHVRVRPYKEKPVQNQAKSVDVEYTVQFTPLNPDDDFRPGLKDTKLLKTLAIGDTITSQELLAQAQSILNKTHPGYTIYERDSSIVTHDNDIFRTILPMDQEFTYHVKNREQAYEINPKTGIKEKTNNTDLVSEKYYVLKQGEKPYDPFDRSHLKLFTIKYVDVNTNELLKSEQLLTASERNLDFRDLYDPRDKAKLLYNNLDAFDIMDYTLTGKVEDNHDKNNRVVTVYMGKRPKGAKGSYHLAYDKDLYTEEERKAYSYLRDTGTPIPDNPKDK", "test": "S. pyogenes streptokinase expression inhibitors, potency, dose response, plasminogen activation absorbance, OD405 (AID 1914);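 also: secreted streptokinase activity via plasminogen activation per viability signal from cell pellet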", "assay_type": "functional, Streptococcus pyogenes M1 GAS"}, "HEK293 [5]": {"tested_on": "HEK293", "test": "cells", "assay_type": "functional, cell-based", "details": "Homo sapiens", "remark": "listed apart in the source"}, "[6]": {"test": "cytotoxicity in HPDE-C7 cells, cell-based, fluorescence, HTS (AID 430)", "assay_type": "functional", "details": "Homo sapiens"}, "HEK293 [7]": {"tested_on": "HEK293", "test": "NOD2 signaling inhibitors in MDP-stimulated cells, cell-based, uHTS, luminescence (AID 2001)", "assay_type": "functional", "details": "Homo sapiens"}, "[8]": {"test": "cytotoxicity in KRAS-transformed pancreatic duct cells, primary screen, cell-based, fluorescence, HTS (AID 431);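 also: cell line used: HPDE-C7K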", "assay_type": "functional", "details": "Homo sapiens"}, "Streptococcus": {"tested_on": "Streptococcus", "test": "Group A Streptococcus viability loss, dose response, counter-screen for streptokinase expression inhibitor project, luminescence, BacTiterGlo (AID 1915);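 also: potency for reduction of bacterial viability or growth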", "assay_type": "functional, organism-based"}, "[9]": {"target": "T2, High affinity choline transporter 1 (Homo sapiens, UniProt Q9GZV3)", "T2 sequence (Q9GZV3 whole entry)": "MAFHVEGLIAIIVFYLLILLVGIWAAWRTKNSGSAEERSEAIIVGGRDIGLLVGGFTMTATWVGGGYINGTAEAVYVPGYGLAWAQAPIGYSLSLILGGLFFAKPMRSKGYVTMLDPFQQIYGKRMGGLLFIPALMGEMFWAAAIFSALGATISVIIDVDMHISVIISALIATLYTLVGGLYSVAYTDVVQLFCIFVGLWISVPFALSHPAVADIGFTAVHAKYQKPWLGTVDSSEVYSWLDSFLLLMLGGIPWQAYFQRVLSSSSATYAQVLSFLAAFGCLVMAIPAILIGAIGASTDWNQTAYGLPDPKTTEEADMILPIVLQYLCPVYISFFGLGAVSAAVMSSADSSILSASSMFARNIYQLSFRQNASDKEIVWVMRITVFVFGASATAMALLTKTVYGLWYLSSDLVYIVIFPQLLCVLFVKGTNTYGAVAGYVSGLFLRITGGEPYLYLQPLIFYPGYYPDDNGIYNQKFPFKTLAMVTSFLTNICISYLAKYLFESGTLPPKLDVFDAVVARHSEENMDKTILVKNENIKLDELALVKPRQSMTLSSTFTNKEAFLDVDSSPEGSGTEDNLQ", "test": "CHT inhibitors, dose response, cell-based, 5-point CRC, membrane potential dye (AID 504840)", "assay_type": "functional"}, "HEK293 [10]": {"tested_on": "HEK293", "test": "inhibitors of LMP1-driven NF-kB reporter, dose response, cell-based, HEK293, luciferase, cherry-pick (AID 588343)", "assay_type": "functional", "details": "Homo sapiens"}, "[11]": {"test": "LGR2 antagonists, dose response, cell-based, HEK293, CRE-luciferase reporter, cherry pick, set 2 (AID 743343);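 also: transfected cells were stimulated with diluted bursicon conditioned medium after compound addition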", "assay_type": "functional"}, "[12]": {"test": "MC4R antagonists, dose response, counter-screen for LGR2 antagonist project, cell-based, plate reader, cherry pick (AID 743444);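 also: transfected HEK 293 cells stimulated with alpha-MSH peptide; potency of inhibitors of the alpha-MSH evoked signal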", "assay_type": "functional"}, "Bcl-2-related protein A1": {"target": "T3, Bcl-2-related protein A1 (Mus musculus, UniProt Q07440)", "T3 sequence (Q07440 whole entry)": "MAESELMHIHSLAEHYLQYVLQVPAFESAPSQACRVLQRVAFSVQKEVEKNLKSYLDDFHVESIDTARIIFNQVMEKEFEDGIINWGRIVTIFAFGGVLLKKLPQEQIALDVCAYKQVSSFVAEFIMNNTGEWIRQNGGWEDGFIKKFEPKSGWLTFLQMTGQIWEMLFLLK", "assay_type": "functional"}, "[13]": {"target": "T4, Ubiquitin-conjugating enzyme E2 N (Homo sapiens, UniProt P61088)", "T4 sequence (P61088 whole entry)": "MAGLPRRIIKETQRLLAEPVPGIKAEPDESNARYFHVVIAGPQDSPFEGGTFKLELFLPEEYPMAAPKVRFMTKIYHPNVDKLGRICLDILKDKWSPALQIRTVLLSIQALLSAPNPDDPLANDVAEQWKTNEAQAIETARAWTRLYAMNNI", "assay_type": "functional"}, "[14]": {"target": "T4, Ubiquitin-conjugating enzyme E2 N", "assay_type": "functional", "remark": "listed apart in the source"}, "[15]": {"target": "G-protein coupled receptor 55 (Homo sapiens, UniProt Q9Y2T6)", "sequence (Q9Y2T6 whole entry)": "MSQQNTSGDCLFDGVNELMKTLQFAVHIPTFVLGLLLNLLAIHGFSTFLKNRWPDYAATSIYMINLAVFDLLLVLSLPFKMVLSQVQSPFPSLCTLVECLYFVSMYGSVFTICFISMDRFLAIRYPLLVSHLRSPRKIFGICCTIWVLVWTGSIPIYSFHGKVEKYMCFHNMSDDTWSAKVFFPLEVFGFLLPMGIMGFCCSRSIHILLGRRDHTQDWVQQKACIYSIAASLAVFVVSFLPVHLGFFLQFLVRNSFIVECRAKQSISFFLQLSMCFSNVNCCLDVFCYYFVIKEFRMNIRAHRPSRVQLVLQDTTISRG", "test": "GPR55 antagonists blocking LPI-driven arrestin recruitment, primary screen, imaging, U2OS, beta-arrestin-GFP, LPI agonist (AID 2013);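 also: antagonist potency measured as reduced agonist-driven arrestin aggregation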", "assay_type": "functional"}, "[16]": {"test": "inhibitors of HIV Env-driven cell fusion, dose response, cherry-pick (AID 652057)", "assay_type": "functional, cell-based"}, "[17]": {"test": "CEM21 lymphoblast cell cytotoxicity, dose response, cytotoxicity control for viral fusion inhibitor project, CellTiter-Glo luminescence, cherry-picked (AID 652042);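 also: potency for signal decrease meaning cytotoxicity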", "assay_type": "functional, cell-based"}, "[18]": {"test": "off-target signal loss in HeLa-CEM21 co-culture – HeLa F-luc CTL cells, cherry-picked, counter-screen for HIV-1 Env fusion inhibitor project, dose response (AID 652040);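 also: potency for signal decrease marking cytotoxic or nonspecific inhibition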", "assay_type": "functional, cell-based"}, "[19]": {"test": "inhibitors of clade B AD8 Env fusion, dose response, cell-based, cherry-pick (AID 652062);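 also: potency is for inhibitors of fusion seen as a drop in luminescence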", "assay_type": "functional"}, "[20]": {"test": "HEp-2 cell cytotoxicity, dose response, cytotoxicity control for RSV inhibitor project, HTS (AID 2410)", "assay_type": "functional", "details": "human respiratory syncytial virus"}, "[21]": {"target": "T5, Oxysterols receptor LXR-beta (Homo sapiens, UniProt P55055)", "T5 sequence (P55055 whole entry)": "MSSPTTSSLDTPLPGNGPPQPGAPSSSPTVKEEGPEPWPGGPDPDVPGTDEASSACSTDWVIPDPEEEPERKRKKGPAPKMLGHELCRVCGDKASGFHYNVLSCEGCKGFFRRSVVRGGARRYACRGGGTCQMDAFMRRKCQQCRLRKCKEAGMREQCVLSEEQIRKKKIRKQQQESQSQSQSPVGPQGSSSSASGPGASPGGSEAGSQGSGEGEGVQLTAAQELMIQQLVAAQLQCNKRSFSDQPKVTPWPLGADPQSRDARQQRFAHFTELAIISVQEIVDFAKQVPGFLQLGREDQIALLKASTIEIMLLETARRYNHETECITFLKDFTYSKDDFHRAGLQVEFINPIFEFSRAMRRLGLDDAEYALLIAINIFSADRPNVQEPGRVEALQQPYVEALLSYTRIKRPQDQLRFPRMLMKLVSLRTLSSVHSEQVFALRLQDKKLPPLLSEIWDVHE", "assay_type": "functional, cell-based"}, "cells [22]": {"test": "cells", "assay_type": "functional, cell-based"}, "cells [23]": {"test": "cells", "assay_type": "functional, cell-based", "remark": "listed apart in the source"}}, "note": "Active and inactive are the calls of the source."}
{"smiles": "Clc1ccc(CSCCc2ccncc2)cc1", "values": [{"measurement": "CC50", "setting": "[1]", "value": "> 40 µM (active)"}]}
{"smiles": "Cc1conc1NC(c1cccs1)c1ccc2cccnc2c1O", "note": "(stereo not drawn)", "values": [{"measurement": "EC50", "setting": "HEK293 [2]", "value": "> 20 µM (inactive)"}, {"measurement": "EC50", "setting": "[3]", "value": "1.93 µM (active)"}, {"measurement": "IC50", "setting": "HEK293 [4]", "value": "4.74 µM (active)"}, {"measurement": "EC50", "setting": "Streptokinase A", "value": "> 150 µM (not active)"}, {"measurement": "IC50", "setting": "HEK293 [5]", "value": "> 20 µM (inactive)"}, {"measurement": "EC50", "setting": "[6]", "value": "10.2 µM (active)"}, {"measurement": "IC50", "setting": "HEK293 [7]", "value": "6.1 µM (active)"}, {"measurement": "EC50", "setting": "[8]", "value": "5.68 µM (active)"}, {"measurement": "EC50", "setting": "Streptococcus", "value": "7.33 µM (active)"}]}
{"smiles": "Cc1ccc(-c2nnc(OCC3CCCO3)c3ccccc23)cc1", "note": "(stereo not drawn)", "values": [{"measurement": "IC50", "setting": "[9]", "value": "14.5 µM (active)"}]}
{"smiles": "CC1CCN(S(=O)(=O)c2ccc3c(c2)N(CC(=O)NCCCN2CCCCC2C)C(=O)CS3)CC1", "note": "(stereo not drawn)", "values": [{"measurement": "IC50", "setting": "[9]", "value": "13 µM (active)"}]}
{"smiles": "O=C(CN1C(=O)c2ccccc2S1(=O)=O)c1ccccc1F", "values": [{"measurement": "AC50", "setting": "HEK293 [10]", "value": "3.69 µM (active)"}, {"measurement": "AC50", "setting": "[11]", "value": "2.28 µM (active)"}, {"measurement": "AC50", "setting": "[12]", "value": "4.05 µM (active)"}]}
{"smiles": "Cc1c(NC(=O)CCCCCN2C(=O)c3ccccc3C2=O)c(=O)n(-c2ccccc2)n1C", "values": [{"measurement": "IC50", "setting": "Bcl-2-related protein A1", "value": "> 20 µM (inactive)"}, {"measurement": "IC50", "setting": "[13]", "value": "1.23 µM (active)"}, {"measurement": "IC50", "setting": "[14]", "value": "0.709 µM (active)"}]}
{"smiles": "O=C(NC(=S)NC1CCN(Cc2ccccc2)CC1)c1ccc(F)cc1", "values": [{"measurement": "IC50", "setting": "[15]", "value": "4.67 µM (active)"}]}
{"smiles": "Cc1ccc(COC(=O)c2cc(S(=O)(=O)N3CCCCC3)ccc2N2CCOCC2)cc1", "values": [{"measurement": "AC50", "setting": "[16]", "value": "19.8 µM (active)"}, {"measurement": "AC50", "setting": "[17]", "value": "68.1 µM (active)"}, {"measurement": "AC50", "setting": "[18]", "value": "> 70 µM (inactive)"}, {"measurement": "AC50", "setting": "[19]", "value": "10.6 µM (active)"}]}
{"smiles": "CCN(CC)S(=O)(=O)c1cc(C(=O)OCC(=O)Nc2ccc(-c3nc4ccc(C)cc4s3)cc2)ccc1F", "values": [{"measurement": "CC50", "setting": "[20]", "value": "11.4 µM (active)"}, {"measurement": "AC50", "setting": "[11]", "value": "3.17 µM (active)"}, {"measurement": "AC50", "setting": "[12]", "value": "3.11 µM (active)"}, {"measurement": "EC50", "setting": "[21]", "value": "> 67.5 µM (inactive)"}]}
{"smiles": "CCCSc1ncc(Cl)c(C(=O)Nc2ccc(S(=O)(=O)N3CC(C)OC(C)C3)cc2)n1", "note": "(stereo not drawn)", "values": [{"measurement": "IC50", "setting": "[15]", "value": "5.75 µM (active)"}]}
{"smiles": "COc1ccc(C2c3ccc(O)cc3Oc3ncn(CC(C)C)c(=N)c32)cc1", "note": "(stereo not drawn)", "values": [{"measurement": "IC50", "setting": "[15]", "value": "2.27 µM (active)"}]}
{"smiles": "Cc1sc2ncnc(Sc3nnnn3-c3ccc(Cl)cc3)c2c1C", "values": [{"measurement": "EC50", "setting": "cells [22]", "value": "> 350 µM (not active)"}, {"measurement": "EC50", "setting": "[6]", "value": "4.61 µM (active)"}, {"measurement": "EC50", "setting": "[8]", "value": "5.19 µM (active)"}, {"measurement": "EC50", "setting": "cells [23]", "value": "> 350 µM (not active)"}]}
